{"source": "paper PMC9367672", "about": "“In vitro differences in toddalolactone metabolism in various species and its effect on cytochrome P450 expression” (Pharmaceutical Biology, 2022)", "key": {"CYP1A1": {"target": "T1, CYP1A1 (Homo sapiens, UniProt P04798)", "T1 sequence (P04798 1-512)": "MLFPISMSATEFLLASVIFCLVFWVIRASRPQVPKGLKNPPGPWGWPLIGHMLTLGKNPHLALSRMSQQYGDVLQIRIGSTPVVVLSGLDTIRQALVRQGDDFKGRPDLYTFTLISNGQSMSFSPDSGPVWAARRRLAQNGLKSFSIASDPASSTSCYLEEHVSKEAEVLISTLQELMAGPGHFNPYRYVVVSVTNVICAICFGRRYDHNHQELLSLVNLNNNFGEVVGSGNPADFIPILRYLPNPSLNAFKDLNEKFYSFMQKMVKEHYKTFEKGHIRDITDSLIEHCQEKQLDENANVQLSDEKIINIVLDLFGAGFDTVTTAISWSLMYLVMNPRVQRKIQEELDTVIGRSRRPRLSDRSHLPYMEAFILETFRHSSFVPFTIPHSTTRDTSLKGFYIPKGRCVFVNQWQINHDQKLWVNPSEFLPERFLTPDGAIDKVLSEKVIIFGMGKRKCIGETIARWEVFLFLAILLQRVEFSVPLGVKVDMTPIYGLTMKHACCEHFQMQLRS", "experiment": "Enzyme kinetics of toddalolactone metabolism by recombinant CYP1A1", "settings": "recombinant CYP1A1 (15 nM); P4 formation", "description": "The enzyme kinetics of toddalolactone in oxidative metabolism and glucuronidation were determined by incubating liver microsomes (0.2 mg/mL) or CYPs (15 nM) with different concentrations of toddalolactone (1–200 μM). […] The in vitro intrinsic clearance (CLint) was calculated based on the Vmax/Km ratio. Metabolites were quantified using the standard curve for toddalolactone because of the absence of metabolite standards. […]"}, "RLMs": {"tested_on": "RLMs", "experiment": "Prediction of in vivo hepatic clearance in rats from RLM kinetics", "assay_type": "in vitro ADME, rat", "protocol": "The in vivo hepatic clearances in oxidative metabolism and glucuronidation of toddalolactone were calculated using Equations (4)–(6) (Li et al. [2008]): (4) CLint in vitro=∑i=1nVmax(Mi)/Km(Mi) (5) CLint in vivo=CLint in vitro⋅SF (6) CLH=QH⋅fu⋅CLint in vivo/QH+fu⋅CLint in vivo where SF is the milligrams of microsomal protein per gram of liver multiplied by the grams of liver weight; CLH is hepatic clearance; fu is the unbound fraction in the blood (the value of fu was set to 1 due to the absence of available data for toddalolactone); QH is the blood flow in the liver; and Mi is the metabolite of toddalolacone. The physiological parameters to calculate intrinsic clearance were as follows. The liver weight of dogs, rats and humans were 32, 40 and 25.7 g/kg body weight, respectively; the content of microsomal protein was 77.9, 44.8 and 48.8 mg/g of liver; and the blood flow in the liver was 30.9, 55.2 and 20.7 mL/(min ⋅ kg), respectively (Naritomi et al. [2001])."}, "RAMs": {"tested_on": "RAMs", "experiment": "Enzyme kinetics of toddalolactone metabolism in rabbit liver microsomes (oxidative metabolism and glucuronidation)", "assay_type": "in vitro ADME", "settings": "RAMs; for V max: toddalolactone 1–200 μM", "protocol": "(§1) The CYP reaction system (200 μL) consisted of 0.1 M potassium phosphate buffer (pH 7.4), an NADPH-generating system (1 mM NADPH, 10 mM G-6-P, 1 unit/mL G-6-PD, 4 mM MgCl2), and liver microsomes or recombinant human microsomes (supersomes). Each of the in vitro enzymatic assays using liver microsomes was linear with respect to incubation time and amount of protein. After a pre-incubation at 37 °C for 3 min, the reactions were initiated by adding NADP^+. After incubating for 60 min, the reactions were quenched by adding 200 μL of ice-cold acetonitrile. Samples were centrifuged at 18,000 g for 15 min at 4 °C and 10 μL of supernatant was analyzed using an HPLC system. NADPH or CYP enzyme sources were not used in the control group to ensure that the metabolic reactions were CYP- and NADPH-dependent. All incubation assays were completed in triplicate. The data are presented as mean ± standard deviation (SD).\n(§2) In the UGT reaction system, liver microsomes were incubated in 200 μL of the reaction system containing 4 mM UDPGA, 5 mM MgCl2, 20 µg/mL alamethicin, and 50 mM Tris-HCl buffer (pH 7.4). After pre-incubation at 37 °C for 3 min, UDPGA was added to the mixture to initiate the reactions. The mixtures were incubated at 37 °C for 60 min, followed by the addition of 200 μL of cold methanol to terminate the reactions. After centrifugation at 18,000 g for 15 min, 10 μL of the supernatant was analyzed by HPLC.\n(§3) The enzyme kinetics of toddalolactone in oxidative metabolism and glucuronidation were determined by incubating liver microsomes (0.2 mg/mL) or CYPs (15 nM) with different concentrations of toddalolactone (1–200 μM). The kinetic parameters including Km and Vmax were obtained by fitting the experimental data to the Michaelis–Menten equation (Equation (1)), biphasic kinetics equation (Equation (2)), or substrate inhibition equation (Equation (3)) (He et al. [2018]), and the results were graphically represented on Eadie–Hofstee plots. The in vitro intrinsic clearance (CLint) was calculated based on the Vmax/Km ratio. Metabolites were quantified using the standard curve for toddalolactone because of the absence of metabolite standards. All incubations were repeated in three independent experiments. Kinetic constants were expressed with mean ± SD: (1) V=Vmax×[S]/Km+[S] (2) V=Vmax1×[S]/Ks1+[S]+Vmax2×[S]/Ks2+[S] (3) V=Vmax×[S]/Ks+[S]+[S]^2/Ksi where v is the rate of reaction, Vmax is the estimated maximum velocity, [S] is the substrate concentration, and Km is the affinity constant of the substrate; Vmax1 and Vmax2 represent the estimated maximum velocity of the two metabolic phases; Ks1 and Ks2 represent the affinity constants for two metabolic phases; Ks and Ksi are the substrate affinity and inhibition constants, respectively.\n(§4) The enzyme kinetics in oxidative metabolism and glucuronidation of toddalolactone were studied, and preliminary experiments were performed to ensure that metabolites were formed in the linear range of both reaction time and microsomal protein concentration. The metabolite with the largest peak area was used to calculate the kinetic parameter values (Km, Vmax and CLint). Based on the results of toddalolactone metabolism in different species, the kinetic parameter values in RLMs, DLMs, MLMs, HLMs, RAMs, MIMs, PLMs, CYP1A1 and CYP3A5 were calculated using P4, P4, P4, P4, P2, P2, P4, P4 and P4 data in oxidative metabolism, respectively. In the glucuronidation reaction, the kinetic parameter values in RLMs, MLMs, HLMs, RAMs and PLMs were calculated using P5, P6, P6, P6 and P5 data, respectively."}, "[1]": {"experiment": "Enzyme kinetics of toddalolactone metabolism in rabbit liver microsomes (oxidative metabolism and glucuronidation)", "assay_type": "in vitro ADME", "settings": "rabbit, liver microsomes, pH 7.4, RAMs, Vmax/Km", "protocol": "as §1, §2, §3, §4"}, "[2]": {"experiment": "Enzyme kinetics of toddalolactone metabolism in monkey liver microsomes (oxidative metabolism and glucuronidation)", "assay_type": "in vitro ADME", "settings": "monkey, liver microsomes, pH 7.4, MLMs, Vmax/Km", "protocol": "as §1, §2, §3, §4"}, "MLMs": {"tested_on": "MLMs", "experiment": "Enzyme kinetics of toddalolactone metabolism in monkey liver microsomes (oxidative metabolism and glucuronidation)", "assay_type": "in vitro ADME", "settings": "MLMs; for V max: toddalolactone 1–200 μM", "protocol": "as §1, §2, §3, §4"}, "[3]": {"settings": "P450-catalyzed oxidation, P2 formation"}, "[4]": {"settings": "glucuronide metabolism, P6 formation"}, "[5]": {"settings": "P450-catalyzed oxidation, P4 formation"}}}
{"smiles": "COc1cc2oc(=O)ccc2c(OC)c1C[C@@H](O)C(C)(C)O", "note": "[toddalolactone]", "values": [{"measurement": "K m", "setting": "CYP1A1", "result": "60.12 ± 6.67", "unit": "µM"}, {"measurement": "CLH versus hepatic blood flow (QH)", "setting": "RLMs; RLMs", "result": 1.52, "unit": "%"}, {"measurement": "clearance class according to predicted CLH", "setting": "RLMs; rats", "result": "low-clearance (low-clearance drugs (<30% liver blood flow))"}, {"measurement": "in vivo hepatic clearance (CLH)", "setting": "RLMs; rats, predicted from kinetic parameters of P1–P6, fu set to 1", "result": "1.12 mL/(min/kg body weight)"}, {"measurement": "K m", "setting": "RAMs; [3]", "result": "76.46 ± 16.02", "unit": "µM"}, {"measurement": "V max", "setting": "RAMs; [3]", "result": "20.03 ± 1.72", "unit": "pmol/min/mg protein"}, {"measurement": "K m", "setting": "RAMs; [4]", "result": "91.46 ± 28.22", "unit": "µM"}, {"measurement": "V max", "setting": "RAMs; [4]", "result": "11.98 ± 2.19", "unit": "pmol/min/mg protein"}, {"measurement": "microsomal CLint", "setting": "[1]; [3]", "result": 0.26, "unit": "µL/min/mg"}, {"measurement": "microsomal CLint", "setting": "[1]; [4]", "result": 0.12, "unit": "µL/min/mg"}, {"measurement": "microsomal CLint", "setting": "[2]; [5]", "result": 0.63, "unit": "µL/min/mg"}, {"measurement": "microsomal CLint", "setting": "[2]; [4]", "result": 1.21, "unit": "µL/min/mg"}, {"measurement": "K m", "setting": "MLMs; [5]", "result": "255.67 ± 58.29", "unit": "µM"}, {"measurement": "V max", "setting": "MLMs; [5]", "result": "161.4 ± 25.73", "unit": "pmol/min/mg protein"}, {"measurement": "K m", "setting": "MLMs; [4]", "result": "154.51 ± 42.46", "unit": "µM"}, {"measurement": "V max", "setting": "MLMs; [4]", "result": "187.53 ± 27.77", "unit": "pmol/min/mg protein"}]}
